Reference: patent publication EP3789378A1, “PIPERIDINES OR PIPERIDONES SUBSTITUTED WITH UREA AND HETEROARYL” (Grünenthal GmbH, priority 2019, dated 2021)
Counter-ions that a name gives are not always drawn.

Biological target: T1, h FPR2 (Homo sapiens, UniProt P25090)
T1 construct: expressed in transfected cells
T1 sequence (P25090 1-351): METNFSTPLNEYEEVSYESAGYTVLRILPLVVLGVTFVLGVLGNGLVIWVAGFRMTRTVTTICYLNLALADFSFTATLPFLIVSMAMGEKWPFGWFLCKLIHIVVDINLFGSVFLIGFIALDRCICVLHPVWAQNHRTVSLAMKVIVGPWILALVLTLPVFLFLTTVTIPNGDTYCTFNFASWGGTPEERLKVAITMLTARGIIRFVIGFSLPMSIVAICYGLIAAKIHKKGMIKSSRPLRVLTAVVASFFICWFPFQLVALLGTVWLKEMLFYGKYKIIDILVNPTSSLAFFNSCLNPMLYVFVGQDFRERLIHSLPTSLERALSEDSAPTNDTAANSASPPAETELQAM
Assay: Agonistic activity in hFPR2-Aq-CHO cells (FLIPR Calcium 5 fluorescence assay)
Type: cell-based
Conditions: 11 point half log dilution, final assay concentration from 10µM
Method in brief: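 EC50 reflects the compound-evoked rise in Calcium 5 fluorescence over basal, recorded for 5 min on FLIPR and compared with no-compound wells. Dye-loaded hFPR2-Aq-CHO cells received half-log dilutions from 10 µM to 100 pM final in pH 7.4 HBSS buffer.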

With `CS(=O)(=O)n1ccc(CN2CC[C@@H](NC(=O)Nc3ccccc3)[C@H](c3ccc(Cl)s3)C2)n1` (single isomer, unassigned) [Ex-56, trans-1-(-3-(5-chlorothiophen-2-yl)-1-((1-(methylsulfonyl)-1H-pyrazol-3-yl)methyl)piperidin-4-yl)-3-phenylurea] the EC50 was 0.9 nM.

In the case of `CS(=O)(=O)n1ccc(CN2CC[C@@H](NC(=O)Nc3ccccc3)[C@H](c3ccc(Cl)s3)C2)n1` (single isomer, unassigned) [Ex-57, trans-1-(-3-(5-chlorothiophen-2-yl)-1-((1-(methylsulfonyl)-1H-pyrazol-3-yl)methyl)piperidin-4-yl)-3-phenylurea], the EC50 is reported as 55 nM.

`COc1ccc([C@@H]2CN(Cc3ccn(S(C)(=O)=O)n3)CC[C@H]2NC(=O)Nc2ccccc2)nc1` (single isomer, unassigned) [Ex-58, trans-3-[1-[(1-methanesulfonyl-1H-pyrazol-3-yl)methyl]-3-(5-methoxypyridin-2-yl)piperidin-4-yl]-1-phenylurea] gave an EC50 of 0.4 nM.

`Cc1cc(NC(=O)N[C@@H]2CCN(Cc3ncccn3)C[C@H]2c2ccc(Cl)s2)sn1` (single isomer, unassigned) [Ex-62, trans-1-[3-(5-chlorothiophen-2-yl)-1-(pyrimidin-2-ylmethyl)piperidin-4-yl]-3-(3-methyl-1,2-thiazol-5-yl)urea] was tested, and the EC50 was 0.2 nM.

With `CS(=O)(=O)n1ccc(CN2CC[C@@H](NC(=O)Nc3ccc(Cl)cc3)[C@H](c3ccc(Cl)s3)C2)n1` (single isomer, unassigned) [Ex-77, trans-1-(4-chlorophenyl)-3-[3-(5-chlorothiophen-2-yl)-1-[(1-methanesulfonyl-1H-pyrazol-3-yl)methyl]piperidin-4-yl]urea] the EC50 was 0.06 nM.

For `CS(=O)(=O)n1ccc(CN2CC[C@@H](NC(=O)Nc3ccc(Cl)cc3)[C@H](c3ccc(Cl)s3)C2)n1` (single isomer, unassigned) [Ex-78, trans-1-(4-chlorophenyl)-3-[3-(5-chlorothiophen-2-yl)-1-[(1-methanesulfonyl-1H-pyrazol-3-yl)methyl]piperidin-4-yl]urea], the EC50 was 52 nM.

`COc1ccc([C@@H]2CN(CC3CCNCC3)CC[C@H]2NC(=O)Nc2ccc(Cl)cc2)nc1` (single isomer, unassigned) [Ex-82, trans-1-(4-chlorophenyl)-3-(3-(5-methoxypyridin-2-yl)-1-(piperidin-4-ylmethyl)piperidin-4-yl)urea] gave an EC50 of 37 nM.

`O=C(Nc1ccc(Cl)cc1)N[C@@H]1CCN(CC2CCNCC2)C[C@H]1c1ccc(Cl)s1` (single isomer, unassigned) [Ex-83, trans-1-(4-chlorophenyl)-3-[3-(5-chlorothiophen-2-yl)-1-(piperidin-4-ylmethyl)piperidin-4-yl]urea dihydrochloride] showed an EC50 of 0.2 nM.

Work on `O=C(Nc1ccc(Cl)cc1)N[C@@H]1CCN(CC2CCNCC2)C[C@H]1c1ccc(Cl)s1` (single isomer, unassigned) [Ex-84, trans-1-(4-chlorophenyl)-3-[3-(5-chlorothiophen-2-yl)-1-(piperidin-4-ylmethyl)piperidin-4-yl]urea dihydrochloride] yielded an EC50 of 33 nM.

With `O=C(Nc1ccc(Cl)cc1)N[C@@H]1CCN(CC2CCOCC2)C[C@H]1c1ccc(Cl)s1` (single isomer, unassigned) [Ex-85, trans-1-(4-chlorophenyl)-3-(3-(5-chlorothiophen-2-yl)-1-((tetrahydro-2H-pyran-4-yl)methyl)piperidin-4-yl)urea] the EC50 was 14 nM.

Work on `COc1ccc([C@@H]2CN(C(=O)c3cnccc3C(F)(F)F)CC[C@H]2NC(=O)Nc2ccc(Cl)cc2)nc1` (single isomer, unassigned) [Ex-99, trans-1-(4-chlorophenyl)-3-[3-(5-methoxypyridin-2-yl)-1-{[4-(trifluoromethyl)pyridin-3-yl]carbonyl}piperidin-4-yl]urea] yielded an EC50 of 0.4 nM.

`COc1ccc([C@@H]2CN(C(=O)c3ccc(C(F)(F)F)nc3)CC[C@H]2NC(=O)Nc2ccc(Cl)cc2)nc1` (single isomer, unassigned) [Ex-100, trans-1-(4-chlorophenyl)-3-[3-(5-methoxypyridin-2-yl)-1-{[6-(trifluoromethyl)pyridin-3-yl]carbonyl}piperidin-4-yl]urea] showed an EC50 of 93 nM.

Work on `COc1ccc([C@@H]2CN(C(=O)c3ccc(C(F)(F)F)nc3)CC[C@H]2NC(=O)Nc2ccc(Cl)cc2)nc1` (single isomer, unassigned) [Ex-101, trans-1-(4-chlorophenyl)-3-[(5-methoxypyridin-2-yl)-1-{[6-(trifluoromethyl)pyridin-3-yl]carbonyl}piperidin-4-yl]urea] yielded an EC50 of 0.11 nM.

`COc1ccc([C@@H]2CN(CC3CCNCC3)CC[C@H]2NC(=O)Nc2ccc(Cl)cc2)nc1` (single isomer, unassigned) [Ex-124, trans-1-(4-chlorophenyl)-3-(3-(5-methoxypyridin-2-yl)-1-(piperidin-4-ylmethyl)piperidin-4-yl)urea] was tested, and the EC50 was 0.03 nM.

Compound `COc1ccc([C@@H]2CN(C(=O)C3CC(O)C3)CC[C@H]2NC(=O)Nc2cc(C)ns2)nc1` (single isomer, unassigned) [Ex-138, trans-1-[1-(3-Hydroxy-cyclobutanecarbonyl)-3-(5-methoxy-pyridin-2-yl)-piperidin-4-yl]-3-(3-methyl-isothiazol-5-yl)-urea] has an EC50 of 7 nM.

With `COc1ccc([C@@H]2CNCC[C@H]2NC(=O)Nc2ccc(Cl)cc2)nc1` (single isomer, unassigned) [Ex-168, trans-1-(4-Chlorophenyl)-3-[3-(5-methoxy-pyridin-2-yl)-piperidin-4-yl]-urea] the EC50 was 0.9 nM.

With `COc1ccc([C@@H]2CN(CC(N)=O)CC[C@H]2NC(=O)Nc2ccc(Cl)cc2)nc1` (single isomer, unassigned) [Ex-170, trans-2-[4-[[(4-Chlorophenyl)-carbamoyl]amino]-3-(5-methoxy-pyridin-2-yl)-piperidin-1-yl]-acetamide] the EC50 was 0.3 nM.

With `COc1ccc([C@@H]2CN(CC3CC3)CC[C@H]2NC(=O)Nc2ccc(Cl)cc2)nc1` (single isomer, unassigned) [Ex-172, trans-1-(4-Chlorophenyl)-3-[1-(cyclopropyl-methyl)-3-(5-methoxy-pyridin-2-yl)-piperidin-4-yl]-urea] the EC50 was 0.18 nM.

`COc1ccc([C@@H]2CN(CC(F)F)CC[C@H]2NC(=O)Nc2ccc(C#N)cc2)nc1` (single isomer, unassigned) [Ex-174, trans-1-(4-Cyano-phenyl)-3-[1-(2,2-difluoro-ethyl)-3-(5-methoxy-pyridin-2-yl)-piperidin-4-yl]-urea] gave an EC50 of 1.4 nM.

`COc1ccc([C@@H]2CN(CC(C)(C)O)CC[C@H]2NC(=O)Nc2cc(C)ns2)nc1` (single isomer, unassigned) [Ex-177, trans-1-[1-(2-Hydroxy-2-methyl-propyl)-3-(5-methoxy-pyridin-2-yl)-piperidin-4-yl]-3-(3-methyl-isothiazol-5-yl)-urea] gave an EC50 of 1.4 nM.

With `COc1ccc([C@@H]2CN(CC(C)(C)O)CC[C@H]2NC(=O)Nc2ccc(Cl)cc2)nc1` (single isomer, unassigned) [Ex-179, trans-1-(4-Chlorophenyl)-3-[1-(2-hydroxy-2-methyl-propyl)-3-(5-methoxy-pyridin-2-yl)-piperidin-4-yl]-urea] the EC50 was 0.7 nM.

For `COc1ccc([C@@H]2CN(C(=O)C3CC(O)C3)CC[C@H]2NC(=O)Nc2cc(C)ns2)nc1` (single isomer, unassigned) [Ex-183, trans-1-[1'-(3-hydroxy-cyclobutanecarbonyl)-5-methoxy-1',2',3',4',5',6'-hexahydro-[2,3']bipyridinyl-4'-yl]-3-(3-methyl-isothiazol-5-yl)-urea], the EC50 was 89 nM.

`COc1ccc([C@@H]2CN(C(=O)C3CCN(C)CC3)CC[C@H]2NC(=O)Nc2ccc(Cl)cc2)nc1` (single isomer, unassigned) [Ex-187, trans-1-(4-chlorophenyl)-3-[3-(5-methoxypyridin-2-yl)-1-(1-methylpiperidine-4-carbonyl)piperidin-4-yl]urea] showed an EC50 of 1.4 nM.

`COc1ccc([C@@H]2CN(C(=O)C3CCN(C)CC3)CC[C@H]2NC(=O)Nc2ccc(Cl)cc2)nc1` (single isomer, unassigned) [Ex-188, trans-1-(4-chlorophenyl)-3-[3-(5-methoxypyridin-2-yl)-1-(1-methylpiperidine-4-carbonyl)piperidin-4-yl]urea] showed an EC50 of 29 nM.

Compound `COc1ccc([C@@H]2CN(C(=O)CN(C)C)CC[C@H]2NC(=O)Nc2ccc(Cl)cc2)nc1` (single isomer, unassigned) [Ex-189, trans-1-(4-chlorophenyl)-3-[1-[2-(dimethylamino)acetyl]-3-(5-methoxypyridin-2-yl)piperidin-4-yl]urea] has an EC50 of 1.7 nM.

With `COCCCN1CC[C@@H](NC(=O)Nc2ccc(Cl)cc2)[C@H](c2ccc(OC)cn2)C1` (single isomer, unassigned) [Ex-191, trans-1-(4-chlorophenyl)-3-[1-(3-methoxypropyl)-3-(5-methoxypyridin-2-yl)piperidin-4-yl]urea] the EC50 was 0.7 nM.

Compound `COCCCN1CC[C@@H](NC(=O)Nc2ccc(Cl)cc2)[C@H](c2ccc(OC)cn2)C1` (single isomer, unassigned) [Ex-192, trans-1-(4-chlorophenyl)-3-[1-(3-methoxypropyl)-3-(5-methoxypyridin-2-yl)piperidin-4-yl]urea] has an EC50 of 58 nM.

With `COc1ccc([C@@H]2CN(CC3CC(OC)C3)CC[C@H]2NC(=O)Nc2ccc(Cl)cc2)nc1` (single isomer, unassigned) [Ex-195, trans-1-(4-chloro-phenyl)-3-[5-methoxy-1'-(3-methoxy-cyclobutylmethyl)-1',2',3',4',5',6'-hexahydro-[2,3']bipyridinyl-4'-yl]-urea] the EC50 was 0.5 nM.
